# Source: ChEMBL document CHEMBL3507680, “University of Dundee, Gates Library screen for HepG2 cell viability”
# Assay: Human HepG2 cell viability assay in 384 well format
# Format: toxicity, cell-based
# Design: dose 125 nL, time 70.5 hour; cytotoxicity at 70.5 h: concentration not given beside the values
# Conditions: HepG2 cells, read-out: Inhibition
row,Compound,cytotoxicity at 70.5 h [%]
1,CN(C)S(=O)(=O)N1CCN(C(=O)c2cc(-c3ccc(Br)s3)n[nH]2)CC1,-10.1
2,O=C(CCc1nnc2ccccn2c1=O)NCc1ccc2c(c1)OCO2,25.1
3,Cn1c(CN2CCOCC2)cc(=O)c(O)c1CN1CCCCC1,-4.64
4,CC(C)c1sc(Br)nc1C(=O)NCc1cccnc1,23.2
5,Cc1ccc(C(=O)Nc2nnc(CC(C)C)s2)c(-n2cnnn2)c1C,29.7
6,CC(C)CNC(=O)C1CC(=O)N(c2n[nH]c3ccccc23)C1 (stereo unspecified),-5.36
7,COCCNC(=O)C1CC(=O)N(c2n[nH]c3cccc(F)c23)C1 (stereo unspecified),-25
8,CC(C)NC(=O)c1cccc(Oc2ccc3nncn3n2)c1,23.3
9,CC(C)n1cc(C(=O)NC2CN3CCC2CC3)c2ccccc21 (stereo unspecified),-20.2
10,COc1ccccc1C1SCC(=O)Nc2c1c(=O)[nH]n2C1CCOCC1 (stereo unspecified),-24.1
11,Cc1cc(-c2nn3c(C4CCC4)nnc3s2)on1,-7.88
12,COCCn1cnc2ccc(NC(=O)c3c(C)noc3C)cc2c1=O,30.3
13,COc1ccc2c(ccn2CCC(=O)Nc2n[nH]c(C(C)C)n2)c1,24.3
14,Cn1cnc2ccc(NC(=O)CCCn3cccn3)cc2c1=O,-13.5
15,O=C1CSC(c2ccc(F)c(Cl)c2)c2c(n(C3CCOCC3)[nH]c2=O)N1 (stereo unspecified),10.3
16,CC(C)c1sc(Cl)nc1C(=O)N1CCN(Cc2ccccc2)CC1,27.3
17,CCN1CCCC1CNC(=O)Cc1c(C)n[nH]c1-c1ccc(F)cc1 (stereo unspecified),22.5
18,O=C(Cn1cnc2ccsc2c1=O)NCCCc1nnc2ccccn12,26.5
19,Cc1noc(C)c1C(=O)Nc1ccc2ncn(CC(C)C)c(=O)c2c1,50.5
20,COc1cn(CC(=O)N2CCN(c3ccc(F)cc3)CC2)c(C)cc1=O,27.9
21,COc1ccc(-c2n[nH]c(C)c2CC(=O)NCC2CCOCC2)cc1,-10.5
22,CC(C)n1ccc2c(NC(=O)c3n[nH]c4c3CCC4)cccc21,7.25
23,CSc1ccc(C2SCC(=O)Nc3c2c(=O)[nH]n3C2CCOCC2)cc1 (stereo unspecified),-23.9

row,Compound,cytotoxicity at 70.5 h [%]
1,O=C(CCCn1cnc2ccccc2c1=O)Nc1nc[nH]n1,22.9
2,CC(=O)NC1CCCc2c1[nH]c1ccc(F)cc21 (stereo unspecified),29.6
3,CC(C)Cc1nc(NC(=O)c2cc(-c3cccnc3)n[nH]2)n[nH]1,-5.07
4,O=C(c1cc2c(Cl)cccc2[nH]1)N1CCN(CCc2ccccn2)CC1,24.6
5,CC(=O)Nc1cccc2c1ccn2CC(=O)Nc1n[nH]c(CC(C)C)n1,-5.98
6,Cn1nc(-c2cccc(Cl)c2)c(Br)c1C(=O)O,-16.9
7,Cn1/c(=N/C(=O)CSCC(=O)Nc2nccs2)sc2ccccc21,2.4
8,CN1CCOCC12CCN(Cc1nccs1)CC2,3.99
9,CC(C)NC(=O)c1nc2c(s1)CCCN2C(C)C,7.18
10,CCc1cnc(N2C[C@@H]3[C@@H](C(=O)NCC(C)C)CCS(=O)(=O)[C@@H]3C2)nc1,-5.83
11,CN1CCCc2sc(C(=O)NC3CC3)nc21,-1.86
12,Cn1nc(CN2CCCC2)c2c1CN(C(=O)c1ccncc1F)CC2,-3.12
13,CCc1cnc(N2C[C@@H]3[C@@H](C(=O)NC(C)C)CCS(=O)(=O)[C@@H]3C2)nc1,0.524
14,COCCN(C)C(=O)c1nc2c(s1)CCCN2C(=O)C1CC1,-3.1
15,COCCO[C@@H]1CCN(c2cc(OC)ncn2)[C@H]1Cc1cnn(C)c1,-4.31
16,CCOCC1CC2(CCN(C(=O)C3CCSCC3)CC2)CO1 (stereo unspecified),8.92
17,CS(=O)(=O)N1CCO[C@@H]2CN(C(=O)COC3CCCC3)C[C@@H]2C1,7.96
18,O=C(c1ccco1)N1CCc2onc(CN3CCCC3)c2C1,7.25
19,CC(=O)N1CCCC2(CCN(Cc3ccc(Cl)c(F)c3)C2)C1 (stereo unspecified),-3.79
20,COCCNC(=O)c1nc2c(s1)CCCN2Cc1ccccc1,-6.6
21,COc1cc(N2CC[C@@H]3O[C@@H](c4ccncn4)C[C@H]3C2)ncn1,7.96
22,COc1cc(N2CC[C@@H]3O[C@@H](c4ccnc(C)n4)C[C@H]3C2)ncn1,-4.55
23,CN(C)C(=O)NCc1ncn2c1CN(S(C)(=O)=O)CCC2,-4.56

row,Compound,cytotoxicity at 70.5 h [%]
1,CCOCC1c2c(ncn2C(C)C)CCN1C(=O)C1CC1 (stereo unspecified),-3.05
2,CCS(=O)(=O)N1CCC2(CN(C(=O)c3cn(C)cn3)C2)C1,8.36
3,Cc1ccc(C(=O)N2C[C@@H]3CN(c4ncccn4)C[C@@H]3C2)cn1,-9.68
4,CCCS(=O)(=O)N1CCOC2(CCCN(c3ncc(F)cn3)C2)C1 (stereo unspecified),-13.3
5,CCCS(=O)(=O)N1CCC2(CCCN(c3ncc(F)cn3)C2)C1 (stereo unspecified),-6.01
6,c1coc(CN2CCc3onc(Cn4ccnc4)c3C2)c1,-2.36
7,Cc1nc(N2CCCC2)nc2c1CN(C(=O)c1ccco1)CC2,-4.28
8,Fc1cccc(N2CCc3ncnc(C4CC4)c3CC2)c1,-4.85
9,Fc1cccc(N2CCc3ncnc(N4CCOCC4)c3CC2)c1,-6.22
10,CN(C)c1ncnc2c1CCN(c1cccc(F)c1)CC2,-3.26
11,O=C(O)c1nnn(Cc2ccc(F)cc2)c1-c1cccnc1,-10.1
12,Cc1ccc(Cl)cc1NC(=O)Cn1cc(C(=O)O)ccc1=O,4.77
13,Cc1c(Cl)cccc1NC(=O)Cn1cc(C(=O)O)ccc1=O,-10.5
14,COc1cc(C2C3=C(COC3=O)Nc3[nH]nc(C)c32)cc(Br)c1O (stereo unspecified),2.06
15,O=c1c2cnc(N3CCOCC3)nc2ccn1-c1ccccc1,-7.35
16,COc1cc(C2C3=C(COC3=O)Nc3[nH]nc(C)c32)cc2c1OCO2 (stereo unspecified),9.37
17,COc1ccc(C2SCC(=O)Nc3ccsc32)cc1OC (stereo unspecified),-11.5
18,COc1cc(CC(O)CC#N)c(OC)c2c1OCO2 (stereo unspecified),-9.38
19,CC(C)c1cc2c(O)nc(CSCC(=O)NCc3ccccn3)nc2s1,-5.56
20,O=C(NC1CC1)c1cc2c(nc1O)CC(c1cccs1)CC2=O (stereo unspecified),-11.9
21,CCOC(=O)N1CCN(c2nc(N3CCCC3)c3ccccc3n2)CC1,-6.36
22,COc1cccc(-n2ccc3nc(N4CCCC4)ncc3c2=O)c1,-4.05
23,Cc1ccc(-n2ccc3nc(N4CCCC4)ncc3c2=O)cc1C,9.54

row,Compound,cytotoxicity at 70.5 h [%]
1,CC(C)CCN1N=C(C(=O)N2CCCCCC2)S(=O)(=O)c2ccccc21,21.7
2,CSc1nc2cc(C)n(CC(=O)Nc3nccs3)c2c(=O)n1CC(C)C,-6.26
3,COCCNC(=O)Cn1c(C)cc2nc(SC)n(CC(C)C)c(=O)c21,2.11
4,CCOC(=O)CSc1ccc(-c2nc(CC)no2)cn1,-2.21
5,O=c1[nH]c2nc(NCC3CCCO3)ncc2c(=O)n1-c1cccc(F)c1 (stereo unspecified),4.03
6,O=c1[nH]c2nc(NC3CC3)ncc2c(=O)n1-c1ccc(F)cc1,0.679
7,O=c1[nH]nc2nc(N3CCCC3)ccn12,5.61
8,COc1cc(Cl)c(C)cc1-n1nnc(C(=O)O)c1C,-2
9,COc1ccccc1OCC(=O)n1nc(C)c(C)c1C,6.31
10,O=C1COc2ccc(S(=O)(=O)N3CCOCC3)c3c2N1CCC3,35.1
11,O=C(O)c1ccc2c(CN3CCCC3)c[nH]c2c1,5.69
12,O=C(O)c1ccc2c(CN3CCOCC3)c[nH]c2c1,32.5
13,CC(C)n1[nH]c(=O)c2c1NC(=O)CSC2C1CCCCC1 (stereo unspecified),9.25
14,Cc1ncc(CN2CCOCC2)c2cc(C(=O)c3ccc(Br)cc3)oc12,-13.8
15,CN(C)C(=O)N1CCC2(CC1)CNc1ccc(F)cc12,-2.37
16,O=C(C1CC1)N1CCC2(CC1)CNc1ccc(F)cc12,-10.9
17,CCOC(=O)N1CCN(c2nc(N)c3ccccc3n2)CC1,-7.74
18,CN1C(=O)CCCC12CCCN(Cc1nccs1)C2 (stereo unspecified),9.31
19,O=C([C@@H]1COC[C@H]2CN(c3ccncn3)C[C@H]21)N1CCCCO1,-6.51
20,Cn1nccc1-c1nc2c(cc1C(=O)O)CCN(C(=O)C1CC1)CC2,-2.87
21,O=C(c1ccccn1)N1CC[C@H]2[C@H]1CCN2S(=O)(=O)C1CC1,6.25
22,C1CN(CC2CCOCC2)Cc2c(COCC3CC3)nnn2C1,-7.76
23,CCCS(=O)(=O)N1C[C@@H]2CN(Cc3ccco3)CCO[C@@H]2C1,-2.23

row,Compound,cytotoxicity at 70.5 h [%]
1,c1cnc(N2CCOCC3(CN(Cc4cc[nH]n4)CCO3)C2)nc1 (stereo unspecified),7.31
2,CCC1=N[C@@]2(CC[C@@H]3CN(Cc4ccccc4F)C[C@@H]32)C(=O)N1,-6.13
3,CC(C)NC1CCc2c(ccc(=O)n2CCN2CCCC2=O)C1 (stereo unspecified),-4.58
4,O=C(CO)N1CCC(F)(F)C2(CCN(c3ccccc3)C2)C1 (stereo unspecified),1.4
5,CN1C[C@@H]2CN(C(=O)NCc3cccc(F)c3)CCC[C@]2(C(=O)O)C1,8.66
6,Cc1cnc(N2C[C@H]3CCN(CC4CC4)C[C@H]3C2)nc1,9.39
7,Cn1cnc2c1C(C(=O)N1CCCC1)N(CC1CC1)CC2 (stereo unspecified),-9.9
8,CC(=O)N1CCc2ncn(C)c2C1C(=O)N1CCCC1 (stereo unspecified),-6.96
9,CC(C)n1cnc2c1C(C(=O)N1CCCC1)N(CC1CC1)CC2 (stereo unspecified),-1.74
10,COCCC(=O)N1CCN(CC(C)C)c2nc(C)ccc2C1,-4
11,c1ccn(Cc2noc3c2CN(Cc2ccsc2)CC3)c1,-6.24
12,c1coc(CN2CCc3onc(Cn4cccc4)c3C2)c1,-6.52
13,Cc1nc2c(cc1C(=O)O)CCN(CC1CC1)CC2,-3.49
14,O=C(O)CN1CCC(F)(F)C2(CCN(c3ccccc3)C2)C1 (stereo unspecified),-5.61
15,CCOCC1c2c(ncn2C(C)C)CCN1C(C)C (stereo unspecified),-7.26
16,CC(=O)N1CCn2c(-c3ccccc3)cnc2C12CCNCC2,-6.82
17,Cc1ccc2c(n1)N(CC(C)C)CCN(C(=O)Cc1ccccn1)C2,-4.9
18,CN(C)C[C@@H]1C[C@@H]2CN(c3ncc(F)cn3)CC[C@@H]2N1C,-3.26
19,Cc1cccc(CN2C[C@@H]3CN(Cc4ccoc4)CCO[C@@H]3C2)n1,-1.63
